From EP0745595A1, “3-(3-Aryloxyphenyl)-1-(substituted methyl)-s-triazine-2,4,6-oxo or thiotrione herbicidal agents” (American Cyanamid Company, priority 1995, dated 1996)

Key:
Format in all cases: in vivo
CASSIA OBTUSIFOLIA, L. [1] = assay: Postemergence herbicidal evaluation, CASOB (Sicklepod); parameters: key to CASOB rating / Herbicidal effect rating, CASOB / CASOB: 0-9 visual rating scale vs untreated control
Outline: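 Seedlings about two weeks old were sprayed with compound in 50/50 acetone/water containing 0.5% Tween 20 at about 0.125-0.500 kg/ha and kept in the greenhouse. Visual injury was rated on a 0-9 scale versus control 4-5 weeks after treatment; repeat tests were averaged.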

[2] = tested on: ABUTILON THEOPHRASTI, MEDIC.; assay: Postemergence herbicidal evaluation, ABUTH (Velvetleaf)
Outline: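 Velvetleaf (Abutilon theophrasti) seedlings were raised in jiffy flats for about two weeks and then sprayed postemergence. The test compound was dispersed in a 50/50 acetone/water mixture containing 0.5% TWEEN®20 and applied through a nozzle operating at 40 psi. Plants were kept on greenhouse benches and rated 0-9 four to five weeks after treatment.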

[3] = tested on: TRITICUM AESTIVUM, CV. APOLLO; assay: Postemergence herbicidal evaluation, TRZAWO (Wheat, Winter, CV. APOLLO)
Procedure: In the tests, seedling plants are grown in jiffy flats for about two weeks. The test compounds are dispersed in 50/50 acetone/water mixtures containing 0.5% TWEEN®20, a polyoxyethylene sorbitan monolaurate surfactant of Atlas Chemical Industries, […] through a spray nozzle operating at 40 psi for a predetermined time. After spraying, the plants are placed on greenhouse benches and are cared for in the usual manner, commensurate with conventional greenhouse practices. From four to five weeks after treatment, the seedling plants are examined and rated according to the rating system set forth below. Where more than one test is involved for a given compound, the data are averaged.
(§1) Plant species employed in these evaluations are reported by header abbreviation, common name and scientific name.
(§2) Results of herbicide evaluation are expressed on a rating scale (0-9). The scale is based upon a visual observation of plant stand, vigor, malformation, size, chlorosis and overall plant appearance as compared with a control.

[4] = tested on: AMBROSIA ARTEMISIIFOLIA, L.; assay: Postemergence herbicidal evaluation, AMBEL (Ragweed, Common)
Outline: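 Common ragweed (Ambrosia artemisiifolia) seedlings were raised in jiffy flats for roughly two weeks, then sprayed postemergence through a nozzle at 40 psi with the test compound dispersed in 50/50 acetone/water carrying 0.5% TWEEN®20. The plants were kept on greenhouse benches under conventional care. Four to five weeks later, injury was rated visually on a 0-9 scale, and repeat tests were averaged.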

IPOMOEA SPP. [5] = assay: Preemergence herbicidal evaluation, IPOSS (Morningglory spp.); conditions: rated four to five weeks after treatment
Source text: as §2
(§3) The preemergence herbicidal activity of the test compounds of the present invention is exemplified by the following tests in which the seeds of a variety of monocotyledonous and dicotyledonous plants are separately mixed with potting soil and planted on top of approximately one inch of soil in separate pint cups. […] The treated cups are then placed on greenhouse benches, watered and cared for in accordance with conventional greenhouse procedures. From four to five weeks after treatment, the tests are terminated and each cup is examined and rated according to the rating system provided in Example 40.
(§4) The compounds evaluated are reported by compound number given in Example 40.

CASSIA OBTUSIFOLIA, L. [6] = assay: Preemergence herbicidal evaluation, CASOB (Sicklepod); conditions: rated four to five weeks after treatment
Outline: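 Seeds of various monocot and dicot plants, including sicklepod, were each mixed with potting soil and sown on roughly one inch of soil in separate pint cups for preemergence testing. Treated cups were kept on greenhouse benches, watered and maintained conventionally. Four to five weeks after treatment, each cup was visually rated on a 0-9 scale against a control.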

[7] = tested on: AMBROSIA ARTEMISIIFOLIA, L.; assay: Preemergence herbicidal evaluation, AMBEL (Ragweed, Common); conditions: rated four to five weeks after treatment
Source text: as §2, §3, §4

IPOMOEA SPP. [8] = assay: Postemergence herbicidal evaluation, IPOSS (Morningglory spp.)
Outline: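 Seedlings of morningglory (Ipomoea spp.) were raised in jiffy flats for roughly two weeks. They were then sprayed postemergence through a nozzle at 40 psi with test compound dispersed in 50/50 acetone/water containing 0.5% TWEEN®20 surfactant. Plants were kept on greenhouse benches under standard care and visually rated 0-9 against controls four to five weeks after treatment.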

[9] = tested on: ORYZA SATIVA, L. TEBONNET; assay: Rice tolerance to post-transplant applications under flooded paddy conditions, ORYSAT (Rice, Tebonnet); conditions: post-transplant rice, 3-4 weeks after treatment
Outline: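 Two ten-day-old Tebonnet rice seedlings transplanted into silt loam, flooded 1.5–3 cm; three days later the water surface treated with compounds in acetone/water at about 0.5, 0.25, 0.125 and 0.063 kg/ha. Visual 0–9 injury rating versus control after 3–4 weeks in greenhouse.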

ZEA MAYS L. [10] = assay: Preemergence herbicidal evaluation, ZEAMX (Corn, Field); conditions: rated four to five weeks after treatment
Source text: as §2, §3, §4

[11] = tested on: SETARIA VIRIDIS, (L) BEAU; assay: Postemergence herbicidal evaluation, SETVI (Foxtail, Green); parameters: key to SETVI rating / Herbicidal effect rating, SETVI / SETVI: 0-9 visual rating scale vs untreated control
Outline: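 Under usual greenhouse care after spraying, plants were examined four to five weeks on and given a 0–9 score relative to control. Application rate was about 0.125–0.500 kg/ha on ~two-week-old seedlings.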

CHENOPODIUM ALBUM, L. [12] = assay: Preemergence herbicidal evaluation, CHEAL (Lambsquarters, Common); conditions: rated four to five weeks after treatment
Outline: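 Injury scored visually (0–9; stand, vigor, malformation, size, chlorosis) versus untreated control, four to five weeks post-treatment. Application: aqueous acetone spray onto freshly planted soil cups, equivalent to about 0.125 to 0.50 kg/ha, plants then kept under standard greenhouse care.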

CHENOPODIUM ALBUM, L. [13] = assay: Postemergence herbicidal evaluation, CHEAL (Lambsquarters, Common)
Outline: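 Seedlings of common lambsquarters (Chenopodium album) were raised in jiffy flats for roughly two weeks, then sprayed postemergence through a nozzle at 40 psi with test compound dispersed in 50/50 acetone/water containing 0.5% TWEEN®20 surfactant. Plants were kept on greenhouse benches under standard care and rated visually on a 0-9 scale versus controls.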

ZEA MAYS L. [14] = assay: Postemergence herbicidal evaluation, ZEAMX (Corn, Field)
Procedure: In the tests, seedling plants are grown in jiffy flats for about two weeks. The test compounds are dispersed in 50/50 acetone/water mixtures containing 0.5% TWEEN®20, a polyoxyethylene sorbitan monolaurate surfactant of Atlas Chemical Industries, […] to the plants through a spray nozzle operating at 40 psi for a predetermined time. After spraying, the plants are placed on greenhouse benches and are cared for in the usual manner, commensurate with conventional greenhouse practices. From four to five weeks after treatment, the seedling plants are examined and rated according to the rating system set forth below. Where more than one test is involved for a given compound, the data are averaged.
as §1, §2

For COC(=O)Cn1c(=O)n(C)c(=O)n(-c2cc(Oc3ncc(C(F)(F)F)cc3Cl)ccc2Br)c1=O [Compound 45], the CASOB rating (CASSIA OBTUSIFOLIA, L. [1]; Rate 0.125 kg/ha) was 9.0, the CASOB rating (CASSIA OBTUSIFOLIA, L. [1]; Rate 0.250 kg/ha) was 9.0 and the CASOB rating (CASSIA OBTUSIFOLIA, L. [1]; Rate 0.500 kg/ha) was 9.0. The ABUTH rating ([2]; Rate 0.125 kg/ha) was 9.0, the ABUTH rating ([2]; Rate 0.250 kg/ha) was 9.0 and the ABUTH rating ([2]; Rate 0.500 kg/ha) was 9.0. For the same molecule, the TRZAWO rating ([3]; Rate 0.125 kg/ha) was 9.0, the TRZAWO rating ([3]; Rate 0.250 kg/ha) was 9.0 and the TRZAWO rating ([3]; Rate 0.500 kg/ha) was 9.0. The AMBEL rating ([4]; Rate 0.125 kg/ha) was 9.0, the AMBEL rating ([4]; Rate 0.250 kg/ha) was 9.0 and the AMBEL rating ([4]; Rate 0.500 kg/ha) was 9.0. For the same molecule, the IPOSS herbicidal rating (IPOMOEA SPP. [5]; Rate 0.125 kg/ha) was 0.0, the IPOSS herbicidal rating (IPOMOEA SPP. [5]; Rate 0.250 kg/ha) was 0.0 and the IPOSS herbicidal rating (IPOMOEA SPP. [5]; Rate 0.500 kg/ha) was 0.0. It also gave a CASOB herbicidal rating (CASSIA OBTUSIFOLIA, L. [6]; Rate 0.125 kg/ha) of 0.0, a CASOB herbicidal rating (CASSIA OBTUSIFOLIA, L. [6]; Rate 0.250 kg/ha) of 0.0 and a CASOB herbicidal rating (CASSIA OBTUSIFOLIA, L. [6]; Rate 0.500 kg/ha) of 0.0. The AMBEL herbicidal rating ([7]; Rate 0.125 kg/ha) was 0.0, the AMBEL herbicidal rating ([7]; Rate 0.250 kg/ha) was 0.0 and the AMBEL herbicidal rating ([7]; Rate 0.500 kg/ha) was 0.0. It also gave an IPOSS rating (IPOMOEA SPP. [8]; Rate 0.125 kg/ha) of 9.0, an IPOSS rating (IPOMOEA SPP. [8]; Rate 0.250 kg/ha) of 9.0 and an IPOSS rating (IPOMOEA SPP. [8]; Rate 0.500 kg/ha) of 9.0. The “Herbicidal effect rating, ORYSAT” value ([9]; 0.063 kg/ha) was 2.0, the “Herbicidal effect rating, ORYSAT” value ([9]; 0.125 kg/ha) was 2.0 and the “Herbicidal effect rating, ORYSAT” value ([9]; 0.250 kg/ha) was 4.0. The “Herbicidal effect rating, ORYSAT” value ([9]; 0.500 kg/ha) was 6.0, the ZEAMX herbicidal rating (ZEA MAYS L. [10]; Rate 0.125 kg/ha) was 0.0 and the ZEAMX herbicidal rating (ZEA MAYS L. [10]; Rate 0.250 kg/ha) was 0.0. For the same molecule, the ZEAMX herbicidal rating (ZEA MAYS L. [10]; Rate 0.500 kg/ha) was 0.0, the SETVI rating ([11]; Rate 0.125 kg/ha) was 9.0 and the SETVI rating ([11]; Rate 0.250 kg/ha) was 9.0. For the same molecule, the SETVI rating ([11]; Rate 0.500 kg/ha) was 9.0, the CHEAL herbicidal rating (CHENOPODIUM ALBUM, L. [12]; Rate 0.125 kg/ha) was 9.0 and the CHEAL herbicidal rating (CHENOPODIUM ALBUM, L. [12]; Rate 0.250 kg/ha) was 9.0. For the same molecule, the CHEAL herbicidal rating (CHENOPODIUM ALBUM, L. [12]; Rate 0.500 kg/ha) was 9.0, the CHEAL rating (CHENOPODIUM ALBUM, L. [13]; Rate 0.125 kg/ha) was 9.0 and the CHEAL rating (CHENOPODIUM ALBUM, L. [13]; Rate 0.250 kg/ha) was 9.0. The CHEAL rating (CHENOPODIUM ALBUM, L. [13]; Rate 0.500 kg/ha) was 9.0, the ZEAMX rating (ZEA MAYS L. [14]; Rate 0.125 kg/ha) was 9.0 and the ZEAMX rating (ZEA MAYS L. [14]; Rate 0.250 kg/ha) was 9.0. For the same molecule, the ZEAMX rating (ZEA MAYS L. [14]; Rate 0.500 kg/ha) was 9.0.
